This note sets out measurements from patent US20260049078A1, “DIFLUORO- AND TRIFLUORO-ACETYL HYDRAZIDES AS SELECTIVE HDAC6 INHIBITORS” (ITALFARMACO S.P.A., priority 2022, published 2026).

As a reminder, the EC50 is the concentration giving half of the maximal effect.

Assay [1] relates to human B cell precursor leukemia 697. In words: In vitro α-tubulin acetylation in 697 cell line. Format: cell-based. As to conditions: read-out: TubAc 697 cells EC50. As for the experimental part: The in vitro α-tubulin acetylation was evaluated on human B cell precursor leukemia 697.
The 697 cells were maintained in RPMI Medium 1640 (Gibco, cat: 21875-034) supplemented with 10 mM HEPES (Gibco, cat: 15630-080), Pen-Strep (Penicillin 100 U/ml, Streptomycin 100 μg/ml, Gibco, cat: 15140-122) and 10% fetal bovine serum (Gibco, cat: 10270-106).
The cells were plated in 12-well plates (Costar, cat: 3512) at the density of 5.5×10^5 cells/ml.
Serial dilutions of test compounds in DMSO were prepared using 20 mM stock solutions to obtain 8 doses 200× concentrated in respect to final doses (2.7-100000 nM). Then the DMSO solutions were diluted 10× in culture medium to obtain 20× concentrated solutions which were used for cells treatment (125 μl of medium solutions were added to 2.375 ml of cells suspension). The final DMSO content was set as 0.5%. The plates were incubated at 37° C., 5% CO2 for 16 hours.
At the end of the incubation period, the cells were harvested and centrifuged for 5 minutes at 200×g and washed with 0.9% NaCl at 4° C. The resulting pellet was treated for 30 minutes at 4° C. with 100 μl Complete Lysis-M buffer containing protease inhibitors (Complete Lysis-M Roche+Complete Tablets, Mini Easypack, cat: 4719956001) and phosphatase inhibitor cocktails (PhosStop Easypack, Roche, cat: 4906837001) and then centrifuged 10 minutes at 18213×g. The protein concentration in each supernatant was determined using BCA Protein Assay Kit (Pierce, cat: 23227). The samples were diluted in PBS 1× to obtain 2 μg/ml concentration and coated in MaxiSorp 96-well plates (Nunc, cat: 442404). The plates were incubated overnight at room temperature.
Plates were washed twice with Wash Buffer (PBS 1×+0.005% tween 20) and saturated for 1 hour at room temperature with 300 μL of 1×PBS containing 10% FBS. After washing twice with Wash Buffer, the plates were incubated for 2 hours at room temperature in the presence of 100 μl/well either anti-acetylated-α-tubulin antibody (Monoclonal Anti-Tubulin, Acetylated antibody produced in mouse, Sigma-Aldrich, cat: T6793) or total anti-α-tubulin antibody (Monoclonal Anti-α-Tubulin produced in mouse, Sigma-Aldrich, cat: T6074) diluted 1:1000 in 1×PBS containing 10% FBS. Following 5 washing cycles with Wash Buffer the secondary antibody conjugated with the enzyme HRP (Goat anti-Mouse IgG, IgM, IgA (H+L), stock concentration 0.5 mg/ml, Thermo Fisher Scientific, cat: A10668), diluted 1:1000 in 1×PBS+10% FBS was added at the volume of 100 μl/well. After two hours of incubation at room temperature the plates were washed 4 times with Wash Buffer, then 100 μl/well of TMB substrate (TMB substrate kit, Thermo Fisher Scientific, cat: 34021) was added for 10 minutes at room temperature in the dark. The reaction was stopped by adding 50 μl of 2M H2SO4. The plates were read in BioTek Synergy H1 multimode microplate reader at a wavelength of 450 nm.
The measured absorbance was corrected by subtracting the mean of blank values (samples without the primary antibody). The absorbance ratios of acetyl to total tubulin assays were calculated and normalized to the reference compound (positive control) 4 parameter logistic curve, where 0% is the fitted bottom and 100% is the fitted top of the curve. The results are expressed as relative EC50.

Assay [2] concerns murine neuroblastoma N2a cell lines. In words: In vitro α-tubulin acetylation in N2a cell line. Format: cell-based. As to conditions: N2a cells, 16 hours; dose of the tabulated value not stated (tested at 10 μM, 1 μM and 0.1 μM). The method, then: The in vitro α-tubulin acetylation was evaluated on murine neuroblastoma N2a cell lines.
Cells were maintained in Eagle's Minimum Essential Medium (ATCC, cat: 30-2003) supplemented with 10% fetal bovine serum—FBS (Gibco, cat: 10270-106).
Cells were plated in 12-well plates (Costar, cat: 3512) at the density of 6×10^4 cells/cm^2, respectively. The test compounds were prepared as 20× concentrated medium solutions in respect to the final concentrations. The cells were treated the following day. The compounds were tested at 3 doses: 10 μM, 1 μM and 0.1 μM. The final DMSO content was set as 0.5%. The cells were incubated with the compounds at 37° C. for 16 hours.
At the end of the incubation period, the cells were harvested and centrifuged for 5 minutes at 200×g and washed with 0.9% NaCl at 4° C. The resulting pellet was treated for 30 minutes at 4° C. with 100 μl Complete Lysis-M buffer containing protease inhibitors (Complete Lysis-M Roche+Complete Tablets, Mini Easypack, cat: 4719956001) and phosphatase inhibitor cocktails (PhosStop Easypack, Roche, cat: 4906837001) and then centrifuged 10 minutes at 18213×g. The protein concentration in each supernatant was determined using BCA Protein Assay Kit (Pierce, cat: 23227). The samples were diluted in PBS 1× to obtain 2 μg/ml concentration and coated in MaxiSorp 96-well plates (Nunc, cat: 442404). The plates were incubated overnight at room temperature, then washed twice with Wash Buffer (PBS 1×+0.005% tween 20) and saturated for 1 hour at room temperature with 300 μL of 1×PBS containing 10% FBS. After washing twice with Wash Buffer, the plates were incubated for 2 hours at room temperature in the presence of 100 μl/well either anti-acetylated-α-tubulin antibody (Monoclonal Anti-Tubulin, Acetylated antibody produced in mouse, Sigma-Aldrich, cat: T6793) or total anti-α-tubulin antibody (Monoclonal Anti-α-Tubulin produced in mouse, Sigma-Aldrich, cat: T6074) diluted 1:1000 in 1×PBS containing 10% FBS. Following 5 washing cycles with Wash Buffer, the secondary antibody conjugated with the enzyme HRP (Goat anti-Mouse IgG, IgM, IgA (H+L), stock concentration 0.5 mg/ml, Thermo Fisher Scientific, cat: A10668), diluted 1:1000 in 1×PBS+10% FBS was added at the volume of 100 μl/well. After two hours of incubation at room temperature the plates were washed 4 times with Wash Buffer, then 100 μl/well of TMB substrate (TMB substrate kit, Thermo Fisher Scientific, cat: 34021) was added for 15 minutes at room temperature in the dark. The reaction was stopped by adding 50 μl of 2M H2SO4. The plates were read in BioTek Synergy H1 multimode microplate reader at a wavelength of 450 nm.
The measured absorbance was corrected by subtracting the mean of blank values (samples without the primary antibody). The absorbance ratios of acetyl to total tubulin assays were calculated and normalized to the reference compound (positive control) 4 parameter logistic curve, where 100% is the fitted top of the curve and 0% is DMSO control (protein extract obtained from non-treated cells). The results are expressed as fold increase compared to the control (DMSO).

Like-named read-outs stand apart in the source and are kept apart here.

In the case of `FC(F)c1nnc(-c2ccc(Cn3cc(-c4ccc(NC5=NCCN5)cc4)nn3)cc2)o1` [Compound 1-A], the 50% effective concentration (EC50) in assay [1] (Homo sapiens, B-cell, 16 h) was found to be 0.585 µM.
The same measure, in the same setting: under `Nc1nc2ccc(-c3cn(Cc4ccc(-c5nnc(C(F)F)o5)cc4F)nn3)cc2s1` [Compound 2-A] stands 0.13 µM.
Take `FC(F)c1nnc(-c2ccc(Cn3cc(-c4ccccc4)nn3)nc2)o1` [Compound 13-A]: the EC50 in assay [1] (Homo sapiens, B-cell, 16 h) amounted to 0.505 µM. Further, the “Tubulin acetylation Fold increase compared to control” value (from here on “Tubulin acetylation Fold increase”) in assay [2] turned out to be 6 fold.
Take `Fc1ccccc1-c1cn(Cc2ccc(-c3nnc(C(F)F)o3)cn2)nn1` [Compound 14-A]: the EC50 in assay [1] (Homo sapiens, B-cell, 16 h) amounted to 0.476 µM. In assay [2], the “Tubulin acetylation Fold increase” value was found to be 7 fold.
For `FC(F)c1nnc(-c2ccc(Cn3cc(-c4ccccn4)nn3)nc2)o1` [Compound 20-A], in assay [1] (Homo sapiens, B-cell, 16 h), the concentration giving a half-maximal response (EC50) worked out at 1.21 µM. Also, the “Tubulin acetylation Fold increase” value in assay [2] was found to be 15 fold.
With `Nc1nc2ccc(-c3cn(Cc4ccc(-c5nnc(C(F)F)o5)cc4)nn3)cc2s1` [Compound 32-A], the half-maximal effective concentration (EC50) in assay [1] (Homo sapiens, B-cell, 16 h) is 0.085 µM. Moreover, in assay [2], the “Tubulin acetylation Fold increase” value was 20 fold.
Take `Nc1nc2ccc(-c3cn(Cc4ccc(-c5nnc(C(F)F)o5)cc4Cl)nn3)cc2s1` [Compound 37-A]: the EC50 in assay [1] (Homo sapiens, B-cell, 16 h) was 0.065 µM. Further, in assay [2], the “Tubulin acetylation Fold increase” value was determined as 31 fold.
For the molecule `Nc1nc2ccc(-c3cn(Cc4ccc(-c5nnc(C(F)F)o5)cn4)nn3)cc2s1` [Compound 38-A], in assay [1] (Homo sapiens, B-cell, 16 h), the EC50 worked out at 0.076 µM. For the same molecule, in assay [2], the “Tubulin acetylation Fold increase” value came out at 22 fold.
Regarding `Nc1nc2ccc(C3CN(Cc4ccc(C(=O)NNC(=O)C(F)F)s4)N=N3)cc2s1` (stereo not shown) [Compound 48-A], the concentration giving a half-maximal response (EC50) in assay [1] (697 cells, 16 hours, relative EC50) turned out to be 0.0075 µM. Moreover, in assay [2], the “Tubulin acetylation Fold increase” value is 45 fold.
